Data as given in PMC3445516 (PLoS ONE, 2012).
Like-named read-outs stand apart in the source and are kept apart here.

Columns and labels:
Assay in all cases: Ambit kinase profiling, competition binding
[1] = target: T1, p38-alpha (Homo sapiens, UniProt Q16539); conditions: for % Competition: 10 µM
T1 construct: purchased Ambit Biosciences (KINOMEscan)
Experimental: (§1) Also included in the kinase profile are four isoforms of PKC (δ, ε, η, θ) and eight isoforms of CAMKs (CAMKIα, δ, γ; CAMKIIα, β, δ, γ; CAMK4).
(§2) The global kinase profiling experiment was performed by Ambit Biosciences.

[2] = target: T2, MAP4K4 (Homo sapiens, UniProt O95819)
T2 construct: purchased Ambit Biosciences (KINOMEscan)
T2 sequence (O95819 whole entry): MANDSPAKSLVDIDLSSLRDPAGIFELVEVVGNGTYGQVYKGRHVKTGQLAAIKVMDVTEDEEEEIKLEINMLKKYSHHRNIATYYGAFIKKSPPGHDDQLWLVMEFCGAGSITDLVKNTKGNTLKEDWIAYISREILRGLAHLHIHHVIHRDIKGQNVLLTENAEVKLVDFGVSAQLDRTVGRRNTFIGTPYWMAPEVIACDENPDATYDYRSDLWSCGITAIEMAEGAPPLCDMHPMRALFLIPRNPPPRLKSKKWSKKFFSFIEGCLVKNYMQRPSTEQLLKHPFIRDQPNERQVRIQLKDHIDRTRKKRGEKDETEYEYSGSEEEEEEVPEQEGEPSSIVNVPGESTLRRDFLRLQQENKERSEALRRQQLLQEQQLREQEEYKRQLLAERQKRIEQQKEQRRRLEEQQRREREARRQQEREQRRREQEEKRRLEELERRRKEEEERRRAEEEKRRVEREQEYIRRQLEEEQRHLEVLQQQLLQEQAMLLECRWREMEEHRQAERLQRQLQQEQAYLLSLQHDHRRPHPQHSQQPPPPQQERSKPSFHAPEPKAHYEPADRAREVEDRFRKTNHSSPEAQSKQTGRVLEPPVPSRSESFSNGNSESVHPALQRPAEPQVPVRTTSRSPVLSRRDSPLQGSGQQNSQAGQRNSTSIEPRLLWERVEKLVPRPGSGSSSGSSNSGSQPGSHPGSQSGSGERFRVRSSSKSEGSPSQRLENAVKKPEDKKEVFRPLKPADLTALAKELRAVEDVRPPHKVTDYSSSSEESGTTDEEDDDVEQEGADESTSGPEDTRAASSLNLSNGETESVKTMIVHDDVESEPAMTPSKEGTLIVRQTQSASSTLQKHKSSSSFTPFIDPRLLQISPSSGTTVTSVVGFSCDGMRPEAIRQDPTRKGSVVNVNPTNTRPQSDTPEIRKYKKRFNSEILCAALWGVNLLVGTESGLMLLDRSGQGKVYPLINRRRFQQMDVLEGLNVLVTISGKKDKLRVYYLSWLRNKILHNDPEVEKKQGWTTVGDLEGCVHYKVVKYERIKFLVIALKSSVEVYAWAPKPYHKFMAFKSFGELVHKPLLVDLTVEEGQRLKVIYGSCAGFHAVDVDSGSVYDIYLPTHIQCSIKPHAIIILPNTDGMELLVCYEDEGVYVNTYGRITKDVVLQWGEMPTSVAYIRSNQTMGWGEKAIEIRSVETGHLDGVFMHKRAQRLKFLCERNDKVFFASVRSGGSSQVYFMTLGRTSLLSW
Experimental: as §1, §2

[3] = target: T3, YES (Homo sapiens, UniProt P07947)
T3 construct: purchased Ambit Biosciences (KINOMEscan)
T3 sequence (P07947 whole entry): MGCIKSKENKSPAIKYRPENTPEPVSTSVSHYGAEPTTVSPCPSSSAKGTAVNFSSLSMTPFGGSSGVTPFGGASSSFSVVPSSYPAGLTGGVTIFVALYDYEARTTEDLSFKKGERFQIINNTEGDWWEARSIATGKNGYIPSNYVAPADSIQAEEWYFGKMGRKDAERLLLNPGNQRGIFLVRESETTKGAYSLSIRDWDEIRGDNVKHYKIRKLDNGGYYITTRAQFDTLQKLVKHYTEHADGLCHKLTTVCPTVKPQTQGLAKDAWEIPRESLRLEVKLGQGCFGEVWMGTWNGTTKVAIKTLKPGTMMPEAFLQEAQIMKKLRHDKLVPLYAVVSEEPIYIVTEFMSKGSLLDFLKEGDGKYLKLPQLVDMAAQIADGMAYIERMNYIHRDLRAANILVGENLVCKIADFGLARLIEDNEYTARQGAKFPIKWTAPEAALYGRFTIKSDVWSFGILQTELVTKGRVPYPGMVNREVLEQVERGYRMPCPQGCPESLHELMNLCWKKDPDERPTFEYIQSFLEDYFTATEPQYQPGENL
Experimental: as §1, §2

[4] = target: T4, p38-gamma (Homo sapiens, UniProt P53778)
T4 construct: purchased Ambit Biosciences (KINOMEscan)
T4 sequence (P53778 1-367): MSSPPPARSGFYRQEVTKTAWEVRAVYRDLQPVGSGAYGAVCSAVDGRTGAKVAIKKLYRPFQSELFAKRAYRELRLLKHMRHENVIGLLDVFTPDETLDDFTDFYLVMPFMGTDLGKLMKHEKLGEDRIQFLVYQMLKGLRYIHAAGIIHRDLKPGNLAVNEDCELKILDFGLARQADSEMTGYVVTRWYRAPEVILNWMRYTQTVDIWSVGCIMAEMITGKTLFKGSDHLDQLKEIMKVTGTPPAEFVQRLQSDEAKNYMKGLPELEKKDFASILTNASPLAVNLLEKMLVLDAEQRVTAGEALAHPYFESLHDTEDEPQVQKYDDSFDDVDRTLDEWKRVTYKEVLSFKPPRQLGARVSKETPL
Experimental: as §1, §2

[5] = target: T5, STK16 (Homo sapiens, UniProt O75716)
T5 construct: purchased Ambit Biosciences (KINOMEscan)
T5 sequence (O75716 whole entry): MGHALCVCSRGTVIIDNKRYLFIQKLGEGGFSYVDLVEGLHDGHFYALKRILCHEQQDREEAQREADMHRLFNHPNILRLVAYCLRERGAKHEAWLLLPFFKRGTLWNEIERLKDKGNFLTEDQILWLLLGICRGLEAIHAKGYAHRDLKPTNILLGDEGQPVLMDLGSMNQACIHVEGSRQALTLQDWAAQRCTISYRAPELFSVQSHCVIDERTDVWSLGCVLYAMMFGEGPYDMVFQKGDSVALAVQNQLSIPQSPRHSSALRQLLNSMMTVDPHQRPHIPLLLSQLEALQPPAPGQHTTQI
Experimental: as §1, §2

[6] = target: T6, TTK (Homo sapiens, UniProt P33981)
T6 construct: purchased Ambit Biosciences (KINOMEscan)
T6 sequence (P33981 1-857): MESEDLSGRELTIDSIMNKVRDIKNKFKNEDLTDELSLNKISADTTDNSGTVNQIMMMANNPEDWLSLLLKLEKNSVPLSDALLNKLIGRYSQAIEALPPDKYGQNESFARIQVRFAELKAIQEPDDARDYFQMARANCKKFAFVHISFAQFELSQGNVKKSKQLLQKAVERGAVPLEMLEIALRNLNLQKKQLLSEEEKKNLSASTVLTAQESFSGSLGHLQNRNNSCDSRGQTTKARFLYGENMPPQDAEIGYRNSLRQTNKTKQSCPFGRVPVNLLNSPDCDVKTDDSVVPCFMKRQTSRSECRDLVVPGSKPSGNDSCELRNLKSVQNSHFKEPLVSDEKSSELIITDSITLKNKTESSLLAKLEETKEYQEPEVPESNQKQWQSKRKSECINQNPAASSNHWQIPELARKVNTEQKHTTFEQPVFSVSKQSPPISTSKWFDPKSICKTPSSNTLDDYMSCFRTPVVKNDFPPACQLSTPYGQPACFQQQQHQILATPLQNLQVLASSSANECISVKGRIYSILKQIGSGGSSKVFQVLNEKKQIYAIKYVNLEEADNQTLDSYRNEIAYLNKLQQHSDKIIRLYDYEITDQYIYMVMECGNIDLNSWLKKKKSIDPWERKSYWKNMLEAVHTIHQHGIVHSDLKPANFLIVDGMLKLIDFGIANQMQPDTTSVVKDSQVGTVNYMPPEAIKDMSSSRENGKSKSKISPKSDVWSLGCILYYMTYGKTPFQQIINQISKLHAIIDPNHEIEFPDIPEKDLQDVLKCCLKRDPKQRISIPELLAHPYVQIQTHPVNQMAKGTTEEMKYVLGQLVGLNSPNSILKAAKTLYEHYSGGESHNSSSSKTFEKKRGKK
Experimental: as §1, §2

[7] = target: T7, GAK (Homo sapiens, UniProt O14976)
T7 construct: purchased Ambit Biosciences (KINOMEscan)
T7 sequence (O14976 1-1311): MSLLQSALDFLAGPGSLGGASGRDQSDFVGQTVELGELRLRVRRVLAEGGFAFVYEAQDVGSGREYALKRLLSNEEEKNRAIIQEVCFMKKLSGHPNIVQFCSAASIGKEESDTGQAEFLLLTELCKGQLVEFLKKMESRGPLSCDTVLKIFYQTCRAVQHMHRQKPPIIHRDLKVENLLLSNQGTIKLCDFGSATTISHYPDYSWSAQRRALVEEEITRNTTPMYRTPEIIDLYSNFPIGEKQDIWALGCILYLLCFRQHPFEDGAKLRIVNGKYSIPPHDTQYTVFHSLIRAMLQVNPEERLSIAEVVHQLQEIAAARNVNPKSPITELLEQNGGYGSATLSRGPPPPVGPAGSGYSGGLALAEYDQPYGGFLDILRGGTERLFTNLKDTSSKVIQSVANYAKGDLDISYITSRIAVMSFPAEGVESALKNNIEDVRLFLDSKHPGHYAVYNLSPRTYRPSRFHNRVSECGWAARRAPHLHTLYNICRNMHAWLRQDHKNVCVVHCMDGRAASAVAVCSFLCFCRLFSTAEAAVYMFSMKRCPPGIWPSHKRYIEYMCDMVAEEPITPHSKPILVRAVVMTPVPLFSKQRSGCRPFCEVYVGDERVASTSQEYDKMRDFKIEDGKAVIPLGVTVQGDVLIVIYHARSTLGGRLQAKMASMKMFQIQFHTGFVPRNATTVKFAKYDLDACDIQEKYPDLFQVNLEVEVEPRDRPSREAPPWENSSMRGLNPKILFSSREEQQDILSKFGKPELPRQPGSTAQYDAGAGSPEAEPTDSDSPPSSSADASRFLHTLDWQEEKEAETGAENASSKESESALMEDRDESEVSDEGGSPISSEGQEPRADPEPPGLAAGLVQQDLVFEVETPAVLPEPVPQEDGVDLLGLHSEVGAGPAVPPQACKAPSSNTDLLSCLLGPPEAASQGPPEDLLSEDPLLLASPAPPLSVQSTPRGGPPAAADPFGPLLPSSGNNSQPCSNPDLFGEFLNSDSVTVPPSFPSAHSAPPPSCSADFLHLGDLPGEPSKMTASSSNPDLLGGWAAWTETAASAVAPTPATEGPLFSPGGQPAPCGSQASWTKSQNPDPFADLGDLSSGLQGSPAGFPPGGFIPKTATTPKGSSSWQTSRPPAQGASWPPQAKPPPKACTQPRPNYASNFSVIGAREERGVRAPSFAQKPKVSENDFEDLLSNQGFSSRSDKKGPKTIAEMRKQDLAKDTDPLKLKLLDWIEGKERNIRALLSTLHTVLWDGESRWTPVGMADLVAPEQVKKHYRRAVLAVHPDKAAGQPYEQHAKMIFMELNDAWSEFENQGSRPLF
Experimental: as §1, §2

T1 sequence (Q16539 whole entry): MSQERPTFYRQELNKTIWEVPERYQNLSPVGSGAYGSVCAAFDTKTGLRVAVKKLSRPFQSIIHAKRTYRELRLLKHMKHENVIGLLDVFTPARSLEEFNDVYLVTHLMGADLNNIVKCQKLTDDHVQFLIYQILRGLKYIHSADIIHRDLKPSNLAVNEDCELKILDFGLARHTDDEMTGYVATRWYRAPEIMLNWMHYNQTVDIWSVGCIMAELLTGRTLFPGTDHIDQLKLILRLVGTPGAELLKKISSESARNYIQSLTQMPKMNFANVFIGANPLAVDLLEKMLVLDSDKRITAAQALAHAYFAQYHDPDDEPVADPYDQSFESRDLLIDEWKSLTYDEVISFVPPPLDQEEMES

Row | Structure (SMILES) | % Competition [1] [%] | inhibition at 10 µM ([2]; MAP4K4, 10 µM, read-out: % Competition) [%] | inhibition at 10 µM ([3]; YES, 10 µM, read-out: % Competition) [%] | inhibition at 10 µM ([4]; 10 µM, read-out: % Competition) [%] | inhibition at 10 µM ([5]; STK16, 10 µM, read-out: % Competition) [%] | inhibition at 10 µM ([6]; TTK, 10 µM, read-out: % Competition) [%] | inhibition at 10 µM ([7]; GAK, 10 µM, read-out: % Competition) [%] | inhibition at 10 µM ([2]; read-out: % Competition) [%] | inhibition at 10 µM ([3]; read-out: % Competition) [%] | % Competition ([4]; 10 µM) [%] | inhibition at 10 µM ([5]; read-out: % Competition) [%] | inhibition at 10 µM ([6]; read-out: % Competition) [%] | inhibition at 10 µM ([7]; read-out: % Competition) [%] | Percent Competition ([1]; compound concentration 10 uM) [%] | inhibition at 10 µM ([2]; MAP4K4, compound concentration 10 uM, read-out: Percent Competition) [%] | inhibition at 10 µM ([3]; YES, compound concentration 10 uM, read-out: Percent Competition) [%] | inhibition at 10 µM ([4]; compound concentration 10 uM, read-out: Percent Competition) [%] | inhibition at 10 µM ([5]; STK16, compound concentration 10 uM, read-out: Percent Competition) [%] | inhibition at 10 µM ([6]; TTK, compound concentration 10 uM, read-out: Percent Competition) [%] | inhibition at 10 µM ([7]; GAK, compound concentration 10 uM, read-out: Percent Competition) [%]
1 | Fc1ccc(-c2c(-c3ccncc3)[nH]c3nccnc23)cc1 [Compound 122] | 100 | 84 | 73 | 90 | 96 | 88 | 98 | – | – | – | – | – | – | – | – | – | – | – | – | –
2 | CC(O)CNc1cc(-c2[nH]c3cccnc3c2-c2ccc(F)cc2)ccn1 (stereo not drawn) [Compound 140] | 100 | – | – | – | – | – | – | < 50 | < 50 | <50 | < 50 | 90 | 98 | – | – | – | – | – | – | –
3 | Fc1ccc(-c2c(-c3ccncc3)[nH]c3nccnc23)cc1 [RO1155697-000-005] | – | – | – | – | – | – | – | – | – | – | – | – | – | 100 | 84 | 73 | 90 | 96 | 88 | 98
